# Laboratory results reported in patent publication US10464941B2, “Therapeutic compounds” (REGENTS OF THE UNIVERSITY OF MINNESOTA, priority 2015, dated 2019).
# Marks after values point to notes of the source that are not given here.
# What was measured:
# LPS-pretreated mice = test: animal or person; details: for LPS pretreated ED50 (CI) i.t. / LPS pretreated i.c.v./i.t. ratio / LPS pretreated ED50 (CI) i.c.v.: LPS 1 mg/kg 24 hours i.p.; for LPS pretreated ED50 (CI) i.t. / LPS pretreated ED50 (CI) i.c.v.: tail flick; for percent maximal possible effect at highest dose measured: 1000 pmol/mouse; for ED50 values (95% CI) LPS (thermal): LPS thermal hyperalgesia model; for Relative Potency relative to a mixture of monovalent mu agonist (4) and CCR5 antagonist (2): mouse, in vivo
# Description: Male ICR-CD1 mice (17-25 g; Harlan, Madison, Wis.), C3H mice (15-20 g, National Cancer Institute, Bethesda, Md.) or TLR4 knock-out mice (gift from Dr. Sabita Roy) were housed, 4 to a small box in a temperature- and humidity-controlled environment with unlimited access to food and water. They were maintained on a 12 h light/dark cycle. All experiments were approved by the Institutional Animal Care and Use Committee of the University of Minnesota (Minneapolis, Minn.).
# The tail flick assay is used to test for antinociception described by D'Amour and Smith^64 and modified by Dewey et. al.^65 Mice are held gently in one hand with the tail positioned in the apparatus (Tail Flick Analgesia Meter, Columbus Instruments, Columbus, Ohio) for radiant heat stimulus. The tail-flick response is elicited by applying radiant heat to the dorsal side of the tail. The test latency is measured before drug treatment (control) and again after the drug treatment (test) at the peak time of the compound, a 10 s maximum cut-off time is used to prevent damage to the tail. Antinociception is quantified according to the method of Harris and Pierson^66 as the percent maximal possible effect (% MPE) which is calculated as: % MPE=(Test−Control/10−Control)×100
# A minimum of three groups of eight to ten mice are used for each dose response curve, and each mouse is used only once.
# The compounds were tested for acute tolerance by comparing the ED80-90 dose measured on day 1 to the same dose administered and retested 24 hours later on the same mouse.
# Compounds were dissolved in 5% DMSO and diluted to less than 1% DMSO for injection. These compounds were administered in a volume of 5-μl either i.c.v (Haley and McCormick) or intrathecal (i.t.) as described for mice by Hylden and Wilcox^67 in conscious mice. […] Time course studies, including the times 5, 10, 20, 30 and 60 minutes were used to determine the peak antinociception.
# Pain is a hallmark of many inflammatory conditions. […] Antinociception was evaluated using the radiant heat-induced tailflick assay. Morphine was employed as a standard opioid agonist under these conditions.
# control mice = test: Radiant heat tail-flick antinociception, control (LPS-untreated) mice; type: in vivo; details: control mice; for CONTROLS ED50 (CI) i.c.v. / CONTROLS ED50 (CI) i.t.: tail flick
# Source text: Pain is a hallmark of many inflammatory conditions.
# [1] = system: CFA-induced mechanical hyperalgesia mouse model; test: Complete Freund's Adjuvant (CFA) mechanical hyperalgesia, electronic von Frey; type: in vivo, mice; details: i.t.
# Description: Before injection of CFA baseline withdrawal thresholds (g) were obtained from a mechanical stimulation using an electronic von Frey anesthesiometer (IITC Life Sciences, Woodland Hills, USA) by applying an accurate force on both left and right hind paw. (2,3) The left hindpaws were then injected (intraplantar) with a 50% solution of CFA (10 μg, Sigma-Aldrich) in water while the mice are under isoflurane anesthesia (10). Twenty-four hours later the withdrawal threshold (g) was again measured prior to and after the test compound i.t. at 10, 20, 30 and 60 minutes to determine the peak time and subsequent ED50. % MPE was calculated ((Time-point withdrawal threshold with drug−CFA withdrawal threshold)/(Day 0 withdrawal threshold−CFA withdrawal threshold))*100 (Wade, C. L., et al., PLoS One 2013, 8, e79239/1-e79239/11, 11 pp; Martinov, T., et al., J Vis Exp 2013, e51212; Sorge, R. E., et al., J. Neurosci. 2011, 31, 15450-15454).
Structure (SMILES),LPS pretreated ED50 (CI) i.t. (LPS-pretreated mice; i.t.),"percent maximal possible effect at highest dose measured (LPS-pretreated mice; LPS pretreated, i.c.v.)",CONTROLS i.c.v./i.t. ratio (control mice),"percent maximal possible effect at highest dose measured (control mice; i.c.v., 1000 pmol/mouse)","percent maximal possible effect at highest dose measured (control mice; i.t., 1000 pmol/mouse)",LPS pretreated i.c.v./i.t. ratio (LPS-pretreated mice),LPS pretreated ED50 (CI) i.c.v. (LPS-pretreated mice; i.c.v.),ED50 values (95% CI) LPS (thermal) (LPS-pretreated mice; i.t.),Relative Potency relative to a mixture of monovalent mu agonist (4) and CCR5 antagonist (2) (LPS-pretreated mice),ED50 values (95% CI) CFA (mechanical) [1],acute tolerance (ED80 retested 24 hours later) (control mice; i.c.v.),CONTROLS ED50 (CI) i.c.v. (control mice; i.c.v.),acute tolerance (ED80 retested 24 hours later) (control mice; i.t.),CONTROLS ED50 (CI) i.t. (control mice; i.t.),"percent maximal possible effect at highest dose measured (control mice; i.c.v., 250 pmol/mouse)","% MPE still present 24 hours later (LPS-pretreated mice; LPS pretreated, i.t., 24 hours later)","percent maximal possible effect at highest dose measured (LPS-pretreated mice; LPS pretreated, i.t.)","percent maximal possible effect at highest dose measured (control mice; i.t., 500 pmol/mouse)"
"CC(=O)N1CCC(C(=O)N(CCCN2CCC(Cc3ccc(C(N)=O)cc3)CC2)c2ccc(C)c(Cl)c2)CC1 [Compound 2, TAK-220, reference compound]",740 pmol/mouse,7.6 ± 1.5%,1,26.2 ± 5.9%,34.2 ± 10.8%,,,,,,,,,,,,,
"Cc1ccc(N(CCCN2CCC(Cc3ccc(C(N)=O)cc3)CC2)C(=O)C2CCN(C(=O)COCC(=O)NCCNC(=O)COCC(=O)N[C@H]3CC[C@@]4(O)C5Cc6ccc(O)c7c6[C@@]4(CCN5C)[C@H]3O7)CC2)cc1Cl [Compound 3a, N-(3-(4-(4-carbamoylbenzyl)piperidin-1-yl)propyl)-N-(3-chloro-4-methylphenyl)-1-(14-(((4aS,7S,7aR,12bS)-4a,9-dihydroxy-3-methyl-2,3,4,4a,5,6,7,7a-octahydro-1H-4,12-methanobenzofuro[3,2-e]isoquinolin-7-yl)amino)-5,10,14-trioxo-3,12-dioxa-6,9-diazatetradecan-1-oyl)piperidine-4-carboxamide]",10.6 pmol/mouse,,3.29,,,5.32,56.41 pmol/mouse,11 pmol/mouse,4.9,3 pmol/mouse,(78.2-145)^c,107 pmol/mouse,(27.3-38.4)^b,32.3 pmol/mouse,,,,
"Cc1ccc(N(CCCN2CCC(Cc3ccc(C(N)=O)cc3)CC2)C(=O)C2CCN(C(=O)COCC(=O)NCCCCCNC(=O)COCC(=O)N[C@H]3CC[C@@]4(O)C5Cc6ccc(O)c7c6[C@@]4(CCN5C)[C@H]3O7)CC2)cc1Cl [Compound 3b, N-(3-(4-(4-carbamoylbenzyl)piperidin-1-yl)propyl)-N-(3-chloro-4-methylphenyl)-1-(17-(((4aS,7S,7aR,12bS)-4a,9-dihydroxy-3-methyl-2,3,4,4a,5,6,7,7a-octahydro-1H-4,12-methanobenzofuro[3,2-e]isoquinolin-7-yl)amino)-5,13,17-trioxo-3,15-dioxa-6,12-diazaheptadecan-1-oyl)piperidine-4-carboxamide]",10.9 pmol/mouse,,3.14,,,6.38,187 pmol/mouse,,4.8,,(166-72.2)^c,358 pmol/mouse,(253-543)^c,371 pmol/mouse,,,,
"Cc1ccc(N(CCCN2CCC(Cc3ccc(C(N)=O)cc3)CC2)C(=O)C2CCN(C(=O)COCC(=O)NCCCCCCCNC(=O)COCC(=O)N[C@H]3CC[C@@]4(O)C5Cc6ccc(O)c7c6[C@@]4(CCN5C)[C@H]3O7)CC2)cc1Cl [Compound 3c, N-(3-(4-(4-carbamoylbenzyl)piperidin-1-yl)propyl)-N-(3-chloro-4-methylphenyl)-1-(19-(((4aS,7S,7aR,12bS)-4a,9-dihydroxy-3-methyl-2,3,4,4a,5,6,7,7a-octahydro-1H-4,12-methanobenzofuro[3,2-e]isoquinolin-7-yl)amino)-5,15,19-trioxo-3,17-dioxa-6,14-diazanonadecan-1-oyl)piperidine-4-carboxamide]",11.4 pmol/mouse,,,,,60.7,692 pmol/mouse,,4.6,,,,(54.6-507)^c,166 pmol/mouse,35.9 ± 9.0%,,,
"Cc1ccc(N(CCCN2CCC(Cc3ccc(C(N)=O)cc3)CC2)C(=O)C2CCN(C(=O)COCC(=O)NCCCCCCCCCNC(=O)COCC(=O)N[C@H]3CC[C@@]4(O)C5Cc6ccc(O)c7c6[C@@]4(CCN5C)[C@H]3O7)CC2)cc1Cl [Compound 3d, N-(3-(4-(4-carbamoylbenzyl)piperidin-1-yl)propyl)-N-(3-chloro-4-methylphenyl)-1-(21-(((4aS,7S,7aR,12bS)-4a,9-dihydroxy-3-methyl-2,3,4,4a,5,6,7,7a-octahydro-1H-4,12-methanobenzofuro[3,2-e]isoquinolin-7-yl)amino)-5,17,21-trioxo-3,19-dioxa-6,16-diazahenicosan-1-oyl)piperidine-4-carboxamide]",8.43 pmol/mouse,63.1 ± 45.2%,63.98,54.5 ± 14.5^ %,,118.62,,,6.2,,,,,15.83 pmol/mouse,,24% MPE,,
"Cc1ccc(N(CCCN2CCC(Cc3ccc(C(N)=O)cc3)CC2)C(=O)C2CCN(C(=O)COCC(=O)NCCCCCCCCCCCCNC(=O)COCC(=O)N[C@H]3CC[C@@]4(O)C5Cc6ccc(O)c7c6[C@@]4(CCN5C)[C@H]3O7)CC2)cc1Cl [Compound 3f, N-(3-(4-(4-carbamoylbenzyl)piperidin-1-yl)propyl)-N-(3-chloro-4-methylphenyl)-1-(24-(((4aS,7S,7aR,12bS)-4a,9-dihydroxy-3-methyl-2,3,4,4a,5,6,7,7a-octahydro-1H-4,12-methanobenzofuro[3,2-e]isoquinolin-7-yl)amino)-5,20,24-trioxo-3,22-dioxa-6,19-diazatetracosan-1-oyl)piperidine-4-carboxamide]",122.70 pmol/mouse,55.7 ± 11.2%,~2.97,27.6 ± 9.1%,,8.15^d,,123 pmol/mouse,0.4,58 pmol/mouse,,,,336.9 pmol/mouse,,,,
"CNC(=O)COCC(=O)NCCCCCCCNC(=O)COCC(=O)N1CCC(C(=O)N(CCCN2CCC(Cc3ccc(C(N)=O)cc3)CC2)c2ccc(C)c(Cl)c2)CC1 [Compound 5, N-(3-(4-(4-carbamoylbenzyl)piperidin-1-yl)propyl)-N-(3-chloro-4-methylphenyl)-1-(3,7,17-trioxo-5,19-dioxa-2,8,16-triazahenicosan-21-oyl)piperidine-4-carboxamide]",,51.9 ± 12.3%,,,,,,,,,,505 pmol/mouse,,,,,32.4 ± 12.5%,28.1 ± 11.3%
